Measurements: ChEMBL document CHEMBL1201862, “PubChem BioAssay data set” (2004)
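Method: 48-hour compound exposure of cells in 96-well plates, five concentrations, linear interpolation of endpoints. Here, GI50 denotes the concentration required for 50% inhibition of growth.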 Calls of active or inactive are those of the source. No stated cut-off is given here; in the data, active = GI50 up to about 1.1 µM and inactive = higher.

How the values were obtained:
Experiment in all cases: growth of human tumour cells (NCI), 48 h
SNB-78 = test system: SNB-78
COLO 205 = test system: COLO 205
KM12 = test system: KM12
LXFL 529 = test system: LXFL 529
SK-OV-3 = test system: SK-OV-3
HT-29 = test system: HT-29
EKVX = test system: EKVX
HL-60 = test system: HL-60
SR = test system: SR
KM-20L2 = test system: KM-20L2
NCI-H226 = test system: NCI-H226
Malme-3M = test system: Malme-3M
HOP-92 = test system: HOP-92
NCI-H23 = test system: NCI-H23
SK-MEL-5 = test system: SK-MEL-5
SNB-75 = test system: SNB-75
NCI-H522 = test system: NCI-H522
A498 = test system: A498
TK-10 = test system: TK-10

Measured: GI50

COc1ccc(NC(=O)CCc2cc(-c3ccc(O)c(OC)c3)nc(NC#N)n2)cc1
inactive: SNB-78 > 100 µM | COLO 205 > 100 µM | KM12 > 100 µM | LXFL 529 > 100 µM | SK-OV-3 > 100 µM | HT-29 > 100 µM | EKVX > 100 µM | HL-60 > 100 µM | SR > 100 µM | KM-20L2 > 100 µM | NCI-H226 > 100 µM | Malme-3M > 100 µM | HOP-92 > 100 µM | NCI-H23 > 100 µM

COc1ccc(C2ON(c3ccccn3)CC=C2C)cc1 (stereo unspecified)
inactive: SK-MEL-5 > 100 µM | SNB-78 > 100 µM | COLO 205 > 100 µM | KM12 > 100 µM | LXFL 529 > 100 µM | SK-OV-3 > 100 µM | HT-29 > 100 µM | EKVX > 100 µM | HL-60 > 100 µM | SR 58.9 µM | KM-20L2 > 100 µM | SNB-75 > 100 µM | NCI-H226 > 100 µM | Malme-3M > 100 µM | NCI-H522 47.4 µM | NCI-H23 78.3 µM

CO/N=C(/C(=O)Nc1c[n+](CC(=O)[O-])cs1)c1csc(N)n1
inactive: SK-MEL-5 > 100 µM | A498 > 100 µM | SNB-78 > 100 µM | COLO 205 > 100 µM | KM12 > 100 µM | LXFL 529 > 100 µM | SK-OV-3 > 100 µM | HT-29 > 100 µM | EKVX > 100 µM | HL-60 > 100 µM | KM-20L2 > 100 µM | NCI-H226 > 100 µM | TK-10 > 100 µM | Malme-3M > 100 µM | HOP-92 > 100 µM | NCI-H522 > 100 µM | NCI-H23 > 100 µM

Cn1c(O)c(C(=O)Nc2cccs2)c(=O)[nH]c1=S
inactive: SK-MEL-5 13.6 µM | A498 19.9 µM | SNB-78 18.9 µM | COLO 205 16.6 µM | KM12 17.9 µM | LXFL 529 12.1 µM | SK-OV-3 16 µM | HT-29 18.2 µM | HL-60 78.9 µM | KM-20L2 19.7 µM | SNB-75 16.9 µM | NCI-H226 14.5 µM | TK-10 31 µM | Malme-3M 16.1 µM | HOP-92 12.6 µM | NCI-H522 13.5 µM | NCI-H23 14.5 µM

OCCNCO
inactive: SK-MEL-5 > 100 µM | A498 > 100 µM | SNB-78 > 100 µM | COLO 205 > 100 µM | KM12 > 100 µM | LXFL 529 > 100 µM | SK-OV-3 > 100 µM | HT-29 > 100 µM | EKVX > 100 µM | HL-60 46.8 µM | SR > 100 µM | KM-20L2 > 100 µM | SNB-75 > 100 µM | NCI-H226 > 100 µM | TK-10 > 100 µM | HOP-92 > 100 µM | NCI-H522 > 100 µM | NCI-H23 > 100 µM

C1=CC(=P(c2ccccc2)(c2ccccc2)c2ccccc2)C=C1
inactive: SK-MEL-5 12.2 µM | SNB-78 7.5 µM | COLO 205 4.13 µM | KM12 9.31 µM | LXFL 529 3.63 µM | SK-OV-3 18.2 µM | HT-29 10.6 µM | EKVX 24.2 µM | HL-60 2.77 µM | KM-20L2 11.3 µM | SNB-75 3.37 µM | TK-10 20.7 µM | Malme-3M 4.75 µM | HOP-92 6.14 µM | NCI-H522 3.13 µM | NCI-H23 11.5 µM

CCOP(=O)(OCC)C1CCCOC1=O (stereo unspecified)
inactive: SK-MEL-5 > 100 µM | A498 > 100 µM | SNB-78 > 100 µM | COLO 205 > 100 µM | KM12 > 100 µM | LXFL 529 > 100 µM | SK-OV-3 > 100 µM | HT-29 > 100 µM | EKVX > 100 µM | HL-60 > 100 µM | KM-20L2 > 100 µM | SNB-75 > 100 µM | TK-10 > 100 µM | Malme-3M > 100 µM | NCI-H23 > 100 µM

COc1ccc(-c2oc(/C=N/c3ccccc3)c([N+](=O)[O-])c2-c2ccc(OC)c(OC)c2)cc1OC
inactive: SK-MEL-5 > 100 µM | SNB-78 > 100 µM | COLO 205 > 100 µM | KM12 > 100 µM | LXFL 529 > 100 µM | SK-OV-3 > 100 µM | HT-29 > 100 µM | HL-60 > 100 µM | SR > 100 µM | KM-20L2 > 100 µM | SNB-75 > 100 µM | NCI-H226 > 100 µM | TK-10 > 100 µM | Malme-3M > 100 µM | HOP-92 65.6 µM | NCI-H522 > 100 µM | NCI-H23 > 100 µM

CCC(=O)C(C(=O)CC)c1c(OC(=O)c2ccccc2)ccc(O)c1C(=O)OC
inactive: SK-MEL-5 > 100 µM | A498 > 100 µM | SNB-78 > 100 µM | COLO 205 > 100 µM | KM12 > 100 µM | LXFL 529 > 100 µM | SK-OV-3 > 100 µM | HT-29 > 100 µM | EKVX > 100 µM | HL-60 > 100 µM | SR 89.9 µM | KM-20L2 > 100 µM | SNB-75 90.8 µM | NCI-H226 > 100 µM | TK-10 > 100 µM | HOP-92 > 100 µM | NCI-H522 > 100 µM | NCI-H23 > 100 µM

Cc1cc2c(C)nn(Cc3ccc(Cl)cc3)c2c(C#N)c1C
inactive: SNB-78 > 100 µM | COLO 205 > 100 µM | LXFL 529 > 100 µM | SK-OV-3 > 100 µM | EKVX > 100 µM | HL-60 > 100 µM | SR > 100 µM | KM-20L2 > 100 µM | NCI-H226 > 100 µM | TK-10 > 100 µM | Malme-3M > 100 µM | HOP-92 35.6 µM | NCI-H23 > 100 µM

CCc1ccccc1NC(=O)C1=C(C)NC(C)=C(C(=O)Nc2ccccc2CC)C1c1cccc([N+](=O)[O-])c1
inactive: SK-MEL-5 27.7 µM | A498 24.2 µM | SNB-78 43.5 µM | COLO 205 34.7 µM | KM12 32.8 µM | LXFL 529 26.2 µM | SK-OV-3 > 100 µM | HT-29 37.1 µM | EKVX 34 µM | HL-60 23.2 µM | KM-20L2 31 µM | SNB-75 32.1 µM | NCI-H226 29.8 µM | TK-10 41.6 µM | Malme-3M 35.9 µM | HOP-92 13.2 µM | NCI-H522 22.2 µM | NCI-H23 36.6 µM

COc1ccc(-c2cc(=O)c3c(O)cccc3o2)c(OC)c1OC
inactive: SK-MEL-5 24.7 µM | A498 33 µM | SNB-78 51.4 µM | COLO 205 > 100 µM | KM12 40.6 µM | LXFL 529 99.5 µM | SK-OV-3 > 100 µM | HT-29 > 100 µM | HL-60 10.1 µM | KM-20L2 > 100 µM | SNB-75 11.9 µM | NCI-H226 > 100 µM | TK-10 47.1 µM | Malme-3M > 100 µM | HOP-92 19.9 µM | NCI-H522 > 100 µM | NCI-H23 > 100 µM
